Measurements: PubChem BioAssay AID1963837 (Molecular Pharmacology Branch, DTP, NCI, 2024)

tested on: 843126-344-R-J1-PDC complex spheroid viability; assay: Anticancer human tumor 843126-344-R-J1-PDC patient-derived melanoma cell line growth inhibition [POLQ]; conditions: second compound 3.16 µM; first compound 3.16 µM; active compounds read low
Procedure: Multicellular complex tumor spheroid response to Polymerase (POL) inhibitors (novobiocin, ART-558, RP6685) in combination with a variety of drugs and investigational agents in selected tumor cell lines
The POL inhibitors (novobiocin, ART-558, and RP6685) were evaluated both individually and in combination with standard of care and investigational anticancer small molecules within a complex spheroid model of solid tumors. . Complex spheroids include a stromal component modeled by human endothelial cells (HUVEC) and fibroblasts modeled by human mesenchymal stem cells (MSCs). The concentration ranges selected for each drug and investigational agent were based upon clinically achievable concentrations if the clinical Cmax of the agent was known.
Compounds. The drugs and investigational agents: novobiocin (NSC847541), ART-558 (NSC835418), RP-6685 (NSC848927), peposertib (NSC802822), ceralasertib (NSC780249), elimusertib (NSC800525), camonsertib (NSC841442), AZD-1390 (NSC803789), olaparib (NSC753686), talazoparib (NSC767125), rucaparib (NSC756644), sotorasib (NSC818433), MRTX-1133 (NSC836407), SN-38 (NSC673596), topotecan (NSC609699), epotoside (NSC141540), doxorubicin (NSC123127), gemcitabine (NSC613327), 5-fluorouracil (NSC19893), paclitaxel (NSC125973), vemurafenib (NSC761431), MSA-2 (NSC828583), SN-011 (NSC837082), adavosertib (NSC754352), prexasertib (NSC758257), carboplatin (NSC241240) and oxaliplatin (NSC266046), were obtained from the National Cancer Institute (NCI) Developmental Therapeutics Program Chemical Repository (21). The FDA-approved anticancer drug set is available from the Developmental Therapeutics Program at https://dtp.cancer.gov/organization/dscb/obtaining/. […] The stock solutions were prepared in dimethyl sulfoxide (DMSO, Sigma-Aldrich, St. Louis, MO, cat. D2650), except for the platinum compounds which were prepared in saline (Quality Biological, Gaithersburg, MD, cat. 114-055-101), at 800-fold the tested concentration and stored at -70 degrees C prior to their use. All drugs and investigational agents were tested over a range starting from a high concentration at or near the clinical Cmax and decreasing in half-log increments. If the clinical Cmax for an agent had not been determined, the highest concentration tested was 10 microM, except for SN-38, which was tested at a high concentration of 1 microM.
Cell Culture. All cells were maintained in an incubator at 37 degrees C and 5% CO2 with 95% humidity. The PDC lines were cultured according to standard operating procedures established by the NCI PDMR (https://pdmr.cancer.gov). Table 3 of the manuscript, lists the cell lines along with the number of the three cell types plated to form the mct-spheroids and media for tumor cell growth. After thawing, all PDC lines, except 997537-175-T-J1-PDC and 415267-285-R-J2-PDC, were cultured in Matrigel-coated flasks prepared with a working solution of 1X Ham's F-12 nutrient mix, without supplementation (Thermo Fisher Scientific, cat. 11765054), 100 U/mL penicillin-streptomycin (Thermo Fisher Scientific, cat. 15140122), and 2.5% Matrigel (Corning Inc., Corning, NY, cat. 354248) for the first three passages. The two PDC lines 997537-175-T-J1-PDC and 415267-285-R-J2-PDC were cultured on uncoated flasks. The 857933-349-R-J2-PDC line was cultured in 6C/Colon 1B media containing advanced DMEM/F-12 (Thermo Fisher Scientific, cat. 12634028), 10 mM HEPES (Thermo Fisher Scientific, cat. 15630080), 1X GlutaMAX supplement (Thermo Fisher Scientific, cat. 35050061), 0.1 mg/mL primocin (InvivoGen, San Diego, CA, cat. ant-pm-2), 10% defined fetal bovine serum, heat inactivated (HyClone Laboratories Inc., Logan, UT, cat. SH30070.03HI), 50% L-WRN conditioned media (ATCC, cat. CRL-3276), 1.25 mM N-Acetyl-L-cysteine (Sigma-Aldrich, cat. A9165), 10 mM nicotinamide (Sigma-Aldrich, cat. N0636), 1X B-27 supplement (Thermo Fisher Scientific, cat. 17504044), 1X N-2 supplement (Thermo Fisher Scientific, cat. […]
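Note: spheroids exposed to drugs for seven days before readout.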

First: COc1cccc2c1C(=O)c1c(O)c3c(c(O)c1C2=O)CC(O)(C(=O)CO)CC3OC1CC(N)C(O)C(C)O1 (stereo not drawn) + Cc1cccc(N(C)C(=O)C2C(O)CCN2c2nc(C)cc(C(F)(F)F)c2C#N)c1
Second: COc1ccc([C@@H](O)c2cc(-c3ncnc4cc(N5CCOCC5)ccc34)c(F)cc2Cl)nn1 + Cc1cccc(N(C)C(=O)C2C(O)CCN2c2nc(C)cc(C(F)(F)F)c2C#N)c1
The viability, T/C of the first is lower: 3.46% for the first, 97.4% for the second.

same assay, conditions: second compound 3.16 µM; first compound 10 µM; active compounds read low

First: O=C(Nc1ccc(O)c(NS(=O)(=O)c2ccc(F)cc2)c1)c1ccc(-c2ccccc2)cc1 + Cc1cccc(N(C)C(=O)C2C(O)CCN2c2nc(C)cc(C(F)(F)F)c2C#N)c1
Second: COc1ccc([C@@H](O)c2cc(-c3ncnc4cc(N5CCOCC5)ccc34)c(F)cc2Cl)nn1 + Cc1cccc(N(C)C(=O)C2C(O)CCN2c2nc(C)cc(C(F)(F)F)c2C#N)c1
The viability, T/C of the first is higher: 69% for the first, 65.6% for the second.

`COc1cccc2c1C(=O)c1c(O)c3c(c(O)c1C2=O)CC(O)(C(=O)CO)CC3OC1CC(N)C(O)C(C)O1` (stereo not drawn) + Cc1cccc(N(C)C(=O)C2C(O)CCN2c2nc(C)cc(C(F)(F)F)c2C#N)c1 showed a viability, T/C of 3.96%.

same assay, conditions: second compound 10 µM; first compound 0.0316 µM; active compounds read low

Compared with `O=C(Nc1ccc(O)c(NS(=O)(=O)c2ccc(F)cc2)c1)c1ccc(-c2ccccc2)cc1` + Cc1cccc(N(C)C(=O)C2C(O)CCN2c2nc(C)cc(C(F)(F)F)c2C#N)c1, `COc1ccc([C@@H](O)c2cc(-c3ncnc4cc(N5CCOCC5)ccc34)c(F)cc2Cl)nn1` + Cc1cccc(N(C)C(=O)C2C(O)CCN2c2nc(C)cc(C(F)(F)F)c2C#N)c1 is lower in viability, T/C: 92.2% for the first, 74.1% for the second.

`COc1cccc2c1C(=O)c1c(O)c3c(c(O)c1C2=O)CC(O)(C(=O)CO)CC3OC1CC(N)C(O)C(C)O1` (stereo not drawn) + Cc1cccc(N(C)C(=O)C2C(O)CCN2c2nc(C)cc(C(F)(F)F)c2C#N)c1 showed a viability, T/C of 68.8%.

same assay, conditions: second compound 10 µM; first compound 0.1 µM; active compounds read low

Going from `O=C(Nc1ccc(O)c(NS(=O)(=O)c2ccc(F)cc2)c1)c1ccc(-c2ccccc2)cc1` + Cc1cccc(N(C)C(=O)C2C(O)CCN2c2nc(C)cc(C(F)(F)F)c2C#N)c1 to `COc1ccc([C@@H](O)c2cc(-c3ncnc4cc(N5CCOCC5)ccc34)c(F)cc2Cl)nn1` + Cc1cccc(N(C)C(=O)C2C(O)CCN2c2nc(C)cc(C(F)(F)F)c2C#N)c1, the viability, T/C falls from 87.4% to 83.5%.

`COc1cccc2c1C(=O)c1c(O)c3c(c(O)c1C2=O)CC(O)(C(=O)CO)CC3OC1CC(N)C(O)C(C)O1` (stereo not drawn) + Cc1cccc(N(C)C(=O)C2C(O)CCN2c2nc(C)cc(C(F)(F)F)c2C#N)c1 gave a viability, T/C of 63.3%.

same assay, conditions: second compound 10 µM; first compound 0.316 µM; active compounds read low

First: O=C(Nc1ccc(O)c(NS(=O)(=O)c2ccc(F)cc2)c1)c1ccc(-c2ccccc2)cc1 + Cc1cccc(N(C)C(=O)C2C(O)CCN2c2nc(C)cc(C(F)(F)F)c2C#N)c1
Second: COc1ccc([C@@H](O)c2cc(-c3ncnc4cc(N5CCOCC5)ccc34)c(F)cc2Cl)nn1 + Cc1cccc(N(C)C(=O)C2C(O)CCN2c2nc(C)cc(C(F)(F)F)c2C#N)c1
The viability, T/C of the first is higher: 89.2% for the first, 70.2% for the second.

In the case of `COc1cccc2c1C(=O)c1c(O)c3c(c(O)c1C2=O)CC(O)(C(=O)CO)CC3OC1CC(N)C(O)C(C)O1` (stereo not drawn) + Cc1cccc(N(C)C(=O)C2C(O)CCN2c2nc(C)cc(C(F)(F)F)c2C#N)c1, the viability, T/C is reported as 26.3%.

same assay, conditions: second compound 10 µM; first compound 1 µM; active compounds read low

Compared with `O=C(Nc1ccc(O)c(NS(=O)(=O)c2ccc(F)cc2)c1)c1ccc(-c2ccccc2)cc1` + Cc1cccc(N(C)C(=O)C2C(O)CCN2c2nc(C)cc(C(F)(F)F)c2C#N)c1, `COc1ccc([C@@H](O)c2cc(-c3ncnc4cc(N5CCOCC5)ccc34)c(F)cc2Cl)nn1` + Cc1cccc(N(C)C(=O)C2C(O)CCN2c2nc(C)cc(C(F)(F)F)c2C#N)c1 is lower in viability, T/C: 85.5% for the first, 66% for the second.

For `COc1cccc2c1C(=O)c1c(O)c3c(c(O)c1C2=O)CC(O)(C(=O)CO)CC3OC1CC(N)C(O)C(C)O1` (stereo not drawn) + Cc1cccc(N(C)C(=O)C2C(O)CCN2c2nc(C)cc(C(F)(F)F)c2C#N)c1, the viability, T/C was 4.4%.

same assay, conditions: second compound 10 µM; first compound 3.16 µM; active compounds read low

Compared with `O=C(Nc1ccc(O)c(NS(=O)(=O)c2ccc(F)cc2)c1)c1ccc(-c2ccccc2)cc1` + Cc1cccc(N(C)C(=O)C2C(O)CCN2c2nc(C)cc(C(F)(F)F)c2C#N)c1, `COc1ccc([C@@H](O)c2cc(-c3ncnc4cc(N5CCOCC5)ccc34)c(F)cc2Cl)nn1` + Cc1cccc(N(C)C(=O)C2C(O)CCN2c2nc(C)cc(C(F)(F)F)c2C#N)c1 is lower in viability, T/C: 93.5% for the first, 77.4% for the second.

Molecule `COc1cccc2c1C(=O)c1c(O)c3c(c(O)c1C2=O)CC(O)(C(=O)CO)CC3OC1CC(N)C(O)C(C)O1` (stereo not drawn) + Cc1cccc(N(C)C(=O)C2C(O)CCN2c2nc(C)cc(C(F)(F)F)c2C#N)c1 has a viability, T/C of 3.99%.

same assay, conditions: second compound 10 µM; first compound 10 µM; active compounds read low

First: O=C(Nc1ccc(O)c(NS(=O)(=O)c2ccc(F)cc2)c1)c1ccc(-c2ccccc2)cc1 + Cc1cccc(N(C)C(=O)C2C(O)CCN2c2nc(C)cc(C(F)(F)F)c2C#N)c1
Second: COc1ccc([C@@H](O)c2cc(-c3ncnc4cc(N5CCOCC5)ccc34)c(F)cc2Cl)nn1 + Cc1cccc(N(C)C(=O)C2C(O)CCN2c2nc(C)cc(C(F)(F)F)c2C#N)c1
The viability, T/C of the first is lower: 62.5% for the first, 64.1% for the second.

`COc1cccc2c1C(=O)c1c(O)c3c(c(O)c1C2=O)CC(O)(C(=O)CO)CC3OC1CC(N)C(O)C(C)O1` (stereo not drawn) + Cc1cccc(N(C)C(=O)C2C(O)CCN2c2nc(C)cc(C(F)(F)F)c2C#N)c1 gave a viability, T/C of 3.14%.
